{"source": "paper PMC9329436", "about": "“Optimization of the 4-anilinoquin(az)oline scaffold as epidermal growth factor receptor (EGFR) inhibitors for chordoma utilizing a toxicology profiling assay platform” (Scientific Reports, 2022)", "assay_type_in_all_cases": "biochemical", "key": {"[1]": {"target": "320 wild-type protein kinases (Homo sapiens, UniProt Q15759)", "sequence (Q15759 whole entry)": "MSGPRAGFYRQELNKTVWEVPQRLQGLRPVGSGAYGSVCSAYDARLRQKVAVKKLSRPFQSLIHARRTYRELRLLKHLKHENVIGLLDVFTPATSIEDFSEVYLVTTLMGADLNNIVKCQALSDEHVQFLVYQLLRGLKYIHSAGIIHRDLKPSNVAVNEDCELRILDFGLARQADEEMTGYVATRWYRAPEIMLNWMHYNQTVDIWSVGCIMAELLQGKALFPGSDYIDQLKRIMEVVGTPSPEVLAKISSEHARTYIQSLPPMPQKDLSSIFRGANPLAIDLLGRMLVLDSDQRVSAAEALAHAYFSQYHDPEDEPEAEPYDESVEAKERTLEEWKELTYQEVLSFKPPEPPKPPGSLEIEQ", "settings": "p38-beta, singlicate", "from_the_text": "(§1) Table S4. Profiling of two compounds at two concentrations against 320 wild-type protein kinases; singlicate measurement; Residual activities (% of control)."}, "[2]": {"target": "320 wild-type protein kinases (Homo sapiens, UniProt P11362)", "sequence (P11362 22-822)": "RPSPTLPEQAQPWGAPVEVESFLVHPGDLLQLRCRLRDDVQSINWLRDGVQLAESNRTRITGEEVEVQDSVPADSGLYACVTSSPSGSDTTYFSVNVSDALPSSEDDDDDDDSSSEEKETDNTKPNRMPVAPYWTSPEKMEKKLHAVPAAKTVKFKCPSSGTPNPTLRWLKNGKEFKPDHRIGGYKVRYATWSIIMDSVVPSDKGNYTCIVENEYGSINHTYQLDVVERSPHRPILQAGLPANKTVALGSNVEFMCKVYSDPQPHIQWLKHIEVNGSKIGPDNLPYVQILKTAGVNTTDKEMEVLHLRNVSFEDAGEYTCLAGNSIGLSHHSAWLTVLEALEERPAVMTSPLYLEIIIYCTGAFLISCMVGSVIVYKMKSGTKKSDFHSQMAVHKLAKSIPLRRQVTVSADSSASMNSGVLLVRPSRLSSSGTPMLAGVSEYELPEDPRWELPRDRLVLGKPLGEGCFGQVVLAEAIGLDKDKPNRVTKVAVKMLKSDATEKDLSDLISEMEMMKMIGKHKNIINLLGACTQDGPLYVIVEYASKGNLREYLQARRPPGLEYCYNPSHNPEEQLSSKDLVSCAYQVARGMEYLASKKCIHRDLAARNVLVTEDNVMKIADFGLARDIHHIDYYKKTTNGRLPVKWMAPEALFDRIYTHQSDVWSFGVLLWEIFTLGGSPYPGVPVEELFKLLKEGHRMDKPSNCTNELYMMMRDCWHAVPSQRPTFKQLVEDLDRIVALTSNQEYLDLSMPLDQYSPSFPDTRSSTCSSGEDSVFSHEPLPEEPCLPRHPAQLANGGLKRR", "settings": "singlicate", "from_the_text": "as §1"}, "[3]": {"target": "320 wild-type protein kinases (Homo sapiens, UniProt Q5S007)", "sequence (Q5S007 whole entry)": "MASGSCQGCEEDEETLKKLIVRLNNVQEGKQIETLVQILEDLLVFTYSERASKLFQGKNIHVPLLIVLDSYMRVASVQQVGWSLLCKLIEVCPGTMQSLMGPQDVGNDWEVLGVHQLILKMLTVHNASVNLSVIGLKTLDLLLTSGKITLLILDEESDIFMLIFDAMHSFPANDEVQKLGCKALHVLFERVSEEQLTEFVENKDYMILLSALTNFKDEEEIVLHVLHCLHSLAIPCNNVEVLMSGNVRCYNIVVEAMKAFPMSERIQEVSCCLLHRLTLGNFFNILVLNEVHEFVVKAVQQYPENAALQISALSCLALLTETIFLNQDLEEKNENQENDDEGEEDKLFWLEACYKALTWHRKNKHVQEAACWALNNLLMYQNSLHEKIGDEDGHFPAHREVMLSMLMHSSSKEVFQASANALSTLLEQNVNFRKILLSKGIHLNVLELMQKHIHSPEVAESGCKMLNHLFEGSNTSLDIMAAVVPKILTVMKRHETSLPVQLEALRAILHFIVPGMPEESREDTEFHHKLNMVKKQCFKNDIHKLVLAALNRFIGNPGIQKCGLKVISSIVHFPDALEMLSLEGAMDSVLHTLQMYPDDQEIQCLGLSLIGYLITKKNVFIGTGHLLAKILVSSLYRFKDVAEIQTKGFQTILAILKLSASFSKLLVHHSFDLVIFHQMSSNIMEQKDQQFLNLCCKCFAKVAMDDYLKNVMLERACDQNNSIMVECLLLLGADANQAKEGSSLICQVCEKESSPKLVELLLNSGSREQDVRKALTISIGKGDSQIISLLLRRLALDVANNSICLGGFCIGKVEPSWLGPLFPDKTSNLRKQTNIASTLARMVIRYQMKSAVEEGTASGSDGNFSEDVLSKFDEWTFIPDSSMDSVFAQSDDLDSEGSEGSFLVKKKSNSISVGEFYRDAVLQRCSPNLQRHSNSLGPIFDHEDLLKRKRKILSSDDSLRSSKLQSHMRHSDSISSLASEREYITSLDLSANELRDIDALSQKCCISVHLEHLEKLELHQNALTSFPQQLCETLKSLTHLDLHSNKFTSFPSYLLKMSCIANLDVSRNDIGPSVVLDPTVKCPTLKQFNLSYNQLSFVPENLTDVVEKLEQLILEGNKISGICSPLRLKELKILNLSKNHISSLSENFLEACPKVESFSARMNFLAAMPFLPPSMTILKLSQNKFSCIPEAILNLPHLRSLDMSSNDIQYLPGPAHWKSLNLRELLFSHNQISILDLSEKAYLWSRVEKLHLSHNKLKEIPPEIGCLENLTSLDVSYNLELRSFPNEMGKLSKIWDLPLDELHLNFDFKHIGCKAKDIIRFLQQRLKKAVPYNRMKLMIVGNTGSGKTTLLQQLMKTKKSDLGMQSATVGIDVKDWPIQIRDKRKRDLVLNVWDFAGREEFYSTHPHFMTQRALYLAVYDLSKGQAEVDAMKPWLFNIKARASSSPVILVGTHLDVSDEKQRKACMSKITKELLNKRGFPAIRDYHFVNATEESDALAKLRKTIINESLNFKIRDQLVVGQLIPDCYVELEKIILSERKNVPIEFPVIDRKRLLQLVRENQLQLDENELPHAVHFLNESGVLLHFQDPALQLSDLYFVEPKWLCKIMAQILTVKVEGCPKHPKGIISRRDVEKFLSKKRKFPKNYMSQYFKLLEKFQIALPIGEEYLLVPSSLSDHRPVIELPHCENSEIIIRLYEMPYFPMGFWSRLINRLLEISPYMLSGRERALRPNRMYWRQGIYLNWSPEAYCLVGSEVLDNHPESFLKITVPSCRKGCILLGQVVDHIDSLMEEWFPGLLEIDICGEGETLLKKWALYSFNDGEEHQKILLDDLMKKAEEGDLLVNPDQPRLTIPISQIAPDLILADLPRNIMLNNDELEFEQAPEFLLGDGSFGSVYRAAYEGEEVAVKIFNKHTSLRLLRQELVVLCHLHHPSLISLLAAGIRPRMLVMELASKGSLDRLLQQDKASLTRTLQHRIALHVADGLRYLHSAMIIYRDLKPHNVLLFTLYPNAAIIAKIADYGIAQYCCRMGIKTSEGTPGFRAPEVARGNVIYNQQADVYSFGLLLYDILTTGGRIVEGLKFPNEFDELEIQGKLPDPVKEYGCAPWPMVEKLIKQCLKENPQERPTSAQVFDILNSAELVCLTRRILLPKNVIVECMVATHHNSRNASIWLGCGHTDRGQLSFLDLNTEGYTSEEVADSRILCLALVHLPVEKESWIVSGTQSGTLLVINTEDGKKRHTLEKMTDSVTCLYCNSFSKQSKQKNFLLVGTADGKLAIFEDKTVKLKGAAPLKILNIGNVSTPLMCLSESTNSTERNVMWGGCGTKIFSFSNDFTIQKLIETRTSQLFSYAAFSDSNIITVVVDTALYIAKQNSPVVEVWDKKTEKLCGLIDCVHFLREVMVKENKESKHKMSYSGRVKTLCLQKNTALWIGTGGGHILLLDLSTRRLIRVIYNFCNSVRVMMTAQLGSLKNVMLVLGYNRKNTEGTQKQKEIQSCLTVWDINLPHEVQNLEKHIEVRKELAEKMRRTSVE", "settings": "singlicate", "from_the_text": "as §1"}, "[4]": {"target": "T1, 320 wild-type protein kinases (Homo sapiens, UniProt Q12866)", "T1 sequence (Q12866 21-999)": "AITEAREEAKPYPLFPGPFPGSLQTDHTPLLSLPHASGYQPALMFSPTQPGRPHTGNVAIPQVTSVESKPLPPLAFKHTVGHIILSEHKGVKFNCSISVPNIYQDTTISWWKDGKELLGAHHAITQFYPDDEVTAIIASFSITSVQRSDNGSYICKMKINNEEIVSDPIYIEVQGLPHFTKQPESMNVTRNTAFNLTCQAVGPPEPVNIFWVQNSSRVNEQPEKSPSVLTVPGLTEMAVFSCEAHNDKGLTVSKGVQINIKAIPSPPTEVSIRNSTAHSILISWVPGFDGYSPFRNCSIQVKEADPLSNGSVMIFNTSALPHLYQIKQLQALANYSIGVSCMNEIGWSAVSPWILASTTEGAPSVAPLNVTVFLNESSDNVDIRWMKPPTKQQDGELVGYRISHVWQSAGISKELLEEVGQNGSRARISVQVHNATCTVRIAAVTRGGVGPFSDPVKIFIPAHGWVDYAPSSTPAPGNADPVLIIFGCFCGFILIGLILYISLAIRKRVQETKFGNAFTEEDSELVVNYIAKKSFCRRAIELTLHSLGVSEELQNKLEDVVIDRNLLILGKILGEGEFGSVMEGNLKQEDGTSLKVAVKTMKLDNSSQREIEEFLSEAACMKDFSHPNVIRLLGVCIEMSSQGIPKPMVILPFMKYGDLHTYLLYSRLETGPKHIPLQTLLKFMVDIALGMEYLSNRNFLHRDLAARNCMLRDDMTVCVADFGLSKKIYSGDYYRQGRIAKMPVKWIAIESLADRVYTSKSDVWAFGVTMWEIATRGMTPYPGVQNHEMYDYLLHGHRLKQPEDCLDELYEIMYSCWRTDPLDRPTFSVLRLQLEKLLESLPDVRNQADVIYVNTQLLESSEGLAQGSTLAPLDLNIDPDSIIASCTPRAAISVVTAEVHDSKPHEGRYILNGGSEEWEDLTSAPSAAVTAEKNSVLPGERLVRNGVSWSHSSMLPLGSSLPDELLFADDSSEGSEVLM", "settings": "MERTK, singlicate", "from_the_text": "as §1"}, "[5]": {"target": "320 wild-type protein kinases (Homo sapiens, UniProt O96017)", "sequence (O96017 whole entry)": "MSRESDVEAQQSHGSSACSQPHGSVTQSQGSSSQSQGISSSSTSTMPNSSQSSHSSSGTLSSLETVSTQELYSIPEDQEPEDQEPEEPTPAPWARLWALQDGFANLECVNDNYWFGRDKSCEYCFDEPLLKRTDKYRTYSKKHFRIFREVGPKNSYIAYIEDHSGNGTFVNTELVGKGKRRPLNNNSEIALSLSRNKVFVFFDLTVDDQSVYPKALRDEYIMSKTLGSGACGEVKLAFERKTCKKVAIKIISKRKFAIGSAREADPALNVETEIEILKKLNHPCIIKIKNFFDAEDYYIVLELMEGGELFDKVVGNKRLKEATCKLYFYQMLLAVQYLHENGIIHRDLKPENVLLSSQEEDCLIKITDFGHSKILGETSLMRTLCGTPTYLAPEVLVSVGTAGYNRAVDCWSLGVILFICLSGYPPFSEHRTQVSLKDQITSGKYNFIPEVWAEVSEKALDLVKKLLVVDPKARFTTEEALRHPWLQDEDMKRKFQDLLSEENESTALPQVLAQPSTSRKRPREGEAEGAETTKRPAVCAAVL", "settings": "singlicate", "from_the_text": "as §1"}, "[6]": {"target": "T2, 320 wild-type protein kinases (Homo sapiens, UniProt O14965)", "T2 sequence (O14965 1-403)": "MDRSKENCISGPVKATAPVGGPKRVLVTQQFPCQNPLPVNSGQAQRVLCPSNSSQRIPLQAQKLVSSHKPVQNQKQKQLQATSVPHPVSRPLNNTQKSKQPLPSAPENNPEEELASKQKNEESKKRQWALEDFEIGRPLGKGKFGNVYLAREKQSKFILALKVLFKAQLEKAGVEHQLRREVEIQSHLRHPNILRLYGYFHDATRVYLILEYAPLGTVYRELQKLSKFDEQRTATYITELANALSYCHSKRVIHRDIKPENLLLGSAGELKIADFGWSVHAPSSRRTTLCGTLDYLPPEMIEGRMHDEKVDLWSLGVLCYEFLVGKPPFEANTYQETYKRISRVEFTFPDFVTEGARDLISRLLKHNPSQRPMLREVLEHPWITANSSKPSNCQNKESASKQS", "settings": "Aurora-A, singlicate", "from_the_text": "as §1"}, "[7]": {"target": "T3, 320 wild-type protein kinases (Homo sapiens, UniProt P52564, S207D/T211D)", "T3 sequence (P52564 1-334 S207D/T211D)": "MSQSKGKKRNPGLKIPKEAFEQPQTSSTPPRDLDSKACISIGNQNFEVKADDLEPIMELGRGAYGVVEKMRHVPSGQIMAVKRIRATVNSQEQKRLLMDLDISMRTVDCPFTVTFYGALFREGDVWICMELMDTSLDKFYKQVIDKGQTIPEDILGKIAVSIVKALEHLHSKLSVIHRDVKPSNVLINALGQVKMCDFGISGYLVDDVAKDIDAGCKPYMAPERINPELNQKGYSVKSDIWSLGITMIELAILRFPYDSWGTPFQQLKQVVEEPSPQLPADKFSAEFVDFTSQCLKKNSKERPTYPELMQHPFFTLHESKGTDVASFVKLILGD", "settings": "MKK6 S207D/T211D**, singlicate", "from_the_text": "as §1"}, "[8]": {"target": "320 wild-type protein kinases (Homo sapiens, UniProt P78368)", "sequence (P78368 whole entry)": "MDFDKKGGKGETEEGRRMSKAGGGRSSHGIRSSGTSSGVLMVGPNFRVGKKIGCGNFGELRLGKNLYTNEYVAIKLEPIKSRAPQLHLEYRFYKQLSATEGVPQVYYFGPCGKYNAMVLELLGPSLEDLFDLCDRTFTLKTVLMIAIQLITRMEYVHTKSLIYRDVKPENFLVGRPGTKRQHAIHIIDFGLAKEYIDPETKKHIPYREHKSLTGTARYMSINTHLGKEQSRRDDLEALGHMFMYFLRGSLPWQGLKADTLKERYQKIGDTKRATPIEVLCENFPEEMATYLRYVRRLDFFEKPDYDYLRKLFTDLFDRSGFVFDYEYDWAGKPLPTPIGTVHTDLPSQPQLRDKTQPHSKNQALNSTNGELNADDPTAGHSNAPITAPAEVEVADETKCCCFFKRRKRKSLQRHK", "settings": "singlicate", "from_the_text": "as §1"}}, "note": "Read-outs that look alike come from different tables or passages of the source.", "data": [{"smiles": "C#Cc1cc(Nc2ncnc3cc(I)ccc23)ccc1Cl", "note": "[Compound 41]", "values": [{"measurement": "Residual activity", "setting": "[1]; 1.0E-06 M", "value": "84 % of control"}, {"measurement": "Residual activity", "setting": "[1]; 1.0E-07 M", "value": "82 % of control"}, {"measurement": "Residual activity", "setting": "[2]; FGF-R1, 1.0E-06 M", "value": "85 % of control"}, {"measurement": "Residual activity", "setting": "[2]; FGF-R1, 1.0E-07 M", "value": "107 % of control"}, {"measurement": "Residual activity", "setting": "[3]; LRRK2, 1.0E-06 M", "value": "87 % of control"}, {"measurement": "Residual activity", "setting": "[3]; LRRK2, 1.0E-07 M", "value": "88 % of control"}, {"measurement": "Residual activity", "setting": "[4]; 1.0E-06 M", "value": "102 % of control"}, {"measurement": "Residual activity", "setting": "[4]; 1.0E-07 M", "value": "103 % of control"}, {"measurement": "Residual activity", "setting": "[5]; CHK2, 1.0E-06 M", "value": "83 % of control"}, {"measurement": "Residual activity", "setting": "[5]; CHK2, 1.0E-07 M", "value": "105 % of control"}, {"measurement": "Residual activity", "setting": "[6]; 1.0E-06 M", "value": "81 % of control"}, {"measurement": "Residual activity", "setting": "[6]; 1.0E-07 M", "value": "95 % of control"}, {"measurement": "Residual activity", "setting": "[7]; 1.0E-06 M", "value": "98 % of control"}, {"measurement": "Residual activity", "setting": "[7]; 1.0E-07 M", "value": "90 % of control"}, {"measurement": "Residual activity", "setting": "[8]; CK1-gamma2, 1.0E-06 M", "value": "112 % of control"}, {"measurement": "Residual activity", "setting": "[8]; CK1-gamma2, 1.0E-07 M", "value": "119 % of control"}]}, {"smiles": "C#Cc1cc(Nc2ncnc3cc(OC)c(OC)cc23)ccc1Cl", "note": "[Compound 45]", "values": [{"measurement": "Residual activity", "setting": "[1]; 1.0E-06 M", "value": "87 % of control"}, {"measurement": "Residual activity", "setting": "[1]; 1.0E-07 M", "value": "90 % of control"}, {"measurement": "Residual activity", "setting": "[2]; FGF-R1, 1.0E-06 M", "value": "92 % of control"}, {"measurement": "Residual activity", "setting": "[2]; FGF-R1, 1.0E-07 M", "value": "100 % of control"}, {"measurement": "Residual activity", "setting": "[3]; LRRK2, 1.0E-06 M", "value": "81 % of control"}, {"measurement": "Residual activity", "setting": "[3]; LRRK2, 1.0E-07 M", "value": "99 % of control"}, {"measurement": "Residual activity", "setting": "[4]; 1.0E-06 M", "value": "83 % of control"}, {"measurement": "Residual activity", "setting": "[4]; 1.0E-07 M", "value": "97 % of control"}, {"measurement": "Residual activity", "setting": "[5]; CHK2, 1.0E-06 M", "value": "78 % of control"}, {"measurement": "Residual activity", "setting": "[5]; CHK2, 1.0E-07 M", "value": "94 % of control"}, {"measurement": "Residual activity", "setting": "[6]; 1.0E-06 M", "value": "80 % of control"}, {"measurement": "Residual activity", "setting": "[6]; 1.0E-07 M", "value": "99 % of control"}, {"measurement": "Residual activity", "setting": "[7]; 1.0E-06 M", "value": "90 % of control"}, {"measurement": "Residual activity", "setting": "[7]; 1.0E-07 M", "value": "95 % of control"}, {"measurement": "Residual activity", "setting": "[8]; CK1-gamma2, 1.0E-06 M", "value": "109 % of control"}, {"measurement": "Residual activity", "setting": "[8]; CK1-gamma2, 1.0E-07 M", "value": "111 % of control"}]}]}
